From patent US8242109B2, “Compositions and methods relating to novel compounds and targets thereof” (priority 2007, dated 2012) come the findings set out here.

The target in assay [1] is T1, F1F0-ATPase (Bos taurus, UniProt P13621).
T1 construct: from tissue; host or cells: bovine sub-mitochondrial particles (SMPs)
The assay is described as follows: Inhibition of ATP synthesis and hydrolysis by the F1F0-ATPase. The class given is biochemical. As to the method:
(§1) The compounds listed in Table 4 were tested for activity against F1F0-ATPase and cytotoxicity in Ramos cells. Inhibition of ATP synthesis and hydrolysis by the F1F0-ATPase was measured as described in K. M. Johnson et al., Chemistry & Biology 2005, 12, 485-496. Cytotoxicity in Ramos cells was measured as described in K. M. Johnson et al., Chemistry & Biology 2005, 12, 485-496, or using the alamarBlue™ Assay with fluorescence detection (U.S. Pat. No. 5,501,959) as supplied and described by Invitrogen (Carlsbad, Calif.).

Assay [2] relates to Ramos cells. The experiment in a line: Cytotoxicity in Ramos cells. The class given is cell-based. The settings on record: Homo sapiens, read-out: Ramos Cell EC50. On the procedure: as §1

Molecules are shown by their SMILES. Read-outs that look alike come from different tables or passages of the source. Bounds are passed on as bounds.

By IC50 is commonly meant the midpoint of a concentration-inhibition curve. In general, EC50 refers to the midpoint of the concentration-response curve. `CC(C)NC(=O)Nc1ccc(C2=NC(Cc3ccccc3Br)C(=O)Nc3ccc(Cl)cc32)cc1` (centres unmarked) [Compound 1, (Z)-1-(4-(3-(2-bromobenzyl)-7-chloro-2-oxo-2,3-dihydro-1H-benzo[e][1,4]diazepin-5-yl)phenyl)-3-isopropylurea]: the IC50 in assay [1] (read-out: ATPase IC50) was in the range of 5 to 10 µM. For the same compound, in assay [2] (cytotoxicity in Ramos cells), the 50% effective concentration (EC50) was < 5 µM.

As to `CC(C)NC(=O)Nc1ccc(C2=NC(Cc3ccccc3C(F)(F)F)C(=O)Nc3ccc(Cl)cc32)cc1` (centres unmarked) [Compound 2, (Z)-1-(4-(7-chloro-2-oxo-3-(2-(trifluoromethyl)benzyl)-2,3-dihydro-1H-benzo[e][1,4]diazepin-5-yl)phenyl)-3-isopropylurea], the half-inhibitory concentration (IC50) in assay [1] (read-out: ATPase IC50) was in the range of 5 to 10 µM. Further, in assay [2] (cytotoxicity in Ramos cells), the EC50 is < 5 µM.

On to `CC(C)NC(=O)Nc1ccc(C2=NC(Cc3ccccc3F)C(=O)Nc3ccc(Cl)cc32)cc1` (centres unmarked) [Compound 3, (Z)-1-(4-(7-chloro-3-(2-fluorobenzyl)-2-oxo-2,3-dihydro-1H-benzo[e][1,4]diazepin-5-yl)phenyl)-3-isopropylurea], for which, in assay [1] (read-out: ATPase IC50), the IC50 is 5 to 10 µM. In addition, in assay [2] (cytotoxicity in Ramos cells), the EC50 lay in the range of 5 to 10 µM.

Regarding `CC(C)NC(=O)Nc1ccc(C2=NC(Cc3ccccc3Cl)C(=O)Nc3ccc(Cl)cc32)cc1` (centres unmarked) [Compound 4, (Z)-1-(4-(7-chloro-3-(2-chlorobenzyl)-2-oxo-2,3-dihydro-1H-benzo[e][1,4]diazepin-5-yl)phenyl)-3-isopropylurea], in assay [1] (read-out: ATPase IC50), the half-maximal inhibitory concentration (IC50) fell in the range of 5 to 10 µM. For the same compound, in assay [2] (cytotoxicity in Ramos cells), the EC50 is < 5 µM.

`CNC(=O)Nc1ccc(C2=NC(Cc3ccccc3Cl)C(=O)Nc3ccc(Cl)cc32)cc1` (centres unmarked) [Compound 5, (Z)-1-(4-(7-chloro-3-(2-chlorobenzyl)-2-oxo-2,3-dihydro-1H-benzo[e][1,4]diazepin-5-yl)phenyl)-3-methylurea] came in with an IC50 in assay [1] of 5 to 10 µM. In addition, in assay [2] (cytotoxicity in Ramos cells), the 50% effective concentration (EC50) is 5 to 10 µM.

For the compound `CN(C)CCNC(=O)Nc1ccc(C2=NC(Cc3ccccc3Cl)C(=O)Nc3ccc(Cl)cc32)cc1` (centres unmarked) [Compound 6, (Z)-1-(4-(7-chloro-3-(2-chlorobenzyl)-2-oxo-2,3-dihydro-1H-benzo[e][1,4]diazepin-5-yl)phenyl)-3-(2-(dimethylamino)ethyl)urea], the IC50 in assay [1] (read-out: ATPase IC50) was > 10 µM. Also, the EC50 in assay [2] (cytotoxicity in Ramos cells) is < 5 µM.

Take `O=C(NCC(F)(F)F)Nc1ccc(C2=NC(Cc3ccccc3Cl)C(=O)Nc3ccc(Cl)cc32)cc1` (centres unmarked) [Compound 7, (Z)-1-(4-(7-chloro-3-(2-chlorobenzyl)-2-oxo-2,3-dihydro-1H-benzo[e][1,4]diazepin-5-yl)phenyl)-3-(2,2,2-trifluoroethyl)urea]: the half-maximal inhibitory concentration (IC50) in assay [1] (read-out: ATPase IC50) is < 5 µM. Further, the EC50 in assay [2] (cytotoxicity in Ramos cells) is < 5 µM.

As for `O=C(Nc1ccc(C2=NC(Cc3ccccc3Cl)C(=O)Nc3ccc(Cl)cc32)cc1)NC1CC1` (centres unmarked) [Compound 8, (Z)-1-(4-(7-chloro-3-(2-chlorobenzyl)-2-oxo-2,3-dihydro-1H-benzo[e][1,4]diazepin-5-yl)phenyl)-3-cyclopropylurea], the IC50 in assay [1] (read-out: ATPase IC50) fell in the range of 5 to 10 µM. For the same compound, the EC50 in assay [2] (cytotoxicity in Ramos cells) was < 5 µM.

For the compound `COCCNC(=O)Nc1ccc(C2=NC(Cc3ccccc3Cl)C(=O)Nc3ccc(Cl)cc32)cc1` (centres unmarked) [Compound 9, (Z)-1-(4-(7-chloro-3-(2-chlorobenzyl)-2-oxo-2,3-dihydro-1H-benzo[e][1,4]diazepin-5-yl)phenyl)-3-(2-methoxyethyl)urea], the half-maximal inhibitory concentration (IC50) in assay [1] (read-out: ATPase IC50) is 5 to 10 µM. Also, the concentration for a half-maximal effect (EC50) in assay [2] (cytotoxicity in Ramos cells) was < 5 µM.

In the case of `CCOCCNC(=O)Nc1ccc(C2=NC(Cc3ccccc3Cl)C(=O)Nc3ccc(Cl)cc32)cc1` (centres unmarked) [Compound 10, (Z)-1-(4-(7-chloro-3-(2-chlorobenzyl)-2-oxo-2,3-dihydro-1H-benzo[e][1,4]diazepin-5-yl)phenyl)-3-(2-ethoxyethyl)urea], the IC50 in assay [1] (read-out: ATPase IC50) is 5 to 10 µM. Further, the 50% effective concentration (EC50) in assay [2] (cytotoxicity in Ramos cells) is < 5 µM.

Take `CNC(=O)Nc1ccc(C2=NC(Cc3ccccc3Br)C(=O)Nc3ccc(Cl)cc32)cc1` (centres unmarked) [Compound 11, (Z)-1-(4-(3-(2-bromobenzyl)-7-chloro-2-oxo-2,3-dihydro-1H-benzo[e][1,4]diazepin-5-yl)phenyl)-3-methylurea]: the concentration for half-maximal inhibition (IC50) in assay [1] fell in the range of 5 to 10 µM. Further, in assay [2] (cytotoxicity in Ramos cells), the concentration giving a half-maximal response (EC50) was < 5 µM.

For the compound `CN(C)CCNC(=O)Nc1ccc(C2=NC(Cc3ccccc3Br)C(=O)Nc3ccc(Cl)cc32)cc1` (centres unmarked) [Compound 12, (Z)-1-(4-(3-(2-bromobenzyl)-7-chloro-2-oxo-2,3-dihydro-1H-benzo[e][1,4]diazepin-5-yl)phenyl)-3-(2-(dimethylamino)ethyl)urea], the IC50 in assay [1] (read-out: ATPase IC50) lay within 5 to 10 µM. For the same compound, the concentration giving a half-maximal response (EC50) in assay [2] (cytotoxicity in Ramos cells) is < 5 µM.

Consider `O=C(NCC(F)(F)F)Nc1ccc(C2=NC(Cc3ccccc3Br)C(=O)Nc3ccc(Cl)cc32)cc1` (centres unmarked) [Compound 13, (Z)-1-(4-(3-(2-bromobenzyl)-7-chloro-2-oxo-2,3-dihydro-1H-benzo[e][1,4]diazepin-5-yl)phenyl)-3-(2,2,2-trifluoroethyl)urea], for which, in assay [1] (read-out: ATPase IC50), the IC50 is < 5 µM. Moreover, the concentration for a half-maximal effect (EC50) in assay [2] (cytotoxicity in Ramos cells) is < 5 µM.

Turning to `O=C(Nc1ccc(C2=NC(Cc3ccccc3Br)C(=O)Nc3ccc(Cl)cc32)cc1)NC1CC1` (centres unmarked) [Compound 14, (Z)-1-(4-(3-(2-bromobenzyl)-7-chloro-2-oxo-2,3-dihydro-1H-benzo[e][1,4]diazepin-5-yl)phenyl)-3-cyclopropylurea], the 50% inhibitory concentration (IC50) in assay [1] (read-out: ATPase IC50) lay in the range of 5 to 10 µM. In addition, in assay [2] (cytotoxicity in Ramos cells), the EC50 was < 5 µM.

Take `COCCNC(=O)Nc1ccc(C2=NC(Cc3ccccc3Br)C(=O)Nc3ccc(Cl)cc32)cc1` (centres unmarked) [Compound 15, (Z)-1-(4-(3-(2-bromobenzyl)-7-chloro-2-oxo-2,3-dihydro-1H-benzo[e][1,4]diazepin-5-yl)phenyl)-3-(2-methoxyethyl)urea]: the IC50 in assay [1] (read-out: ATPase IC50) was in the range of 5 to 10 µM. In addition, the EC50 in assay [2] (cytotoxicity in Ramos cells) is < 5 µM.

As to `CCOCCNC(=O)Nc1ccc(C2=NC(Cc3ccccc3Br)C(=O)Nc3ccc(Cl)cc32)cc1` (centres unmarked) [Compound 16, (Z)-1-(4-(3-(2-bromobenzyl)-7-chloro-2-oxo-2,3-dihydro-1H-benzo[e][1,4]diazepin-5-yl)phenyl)-3-(2-ethoxyethyl)urea], the IC50 in assay [1] (read-out: ATPase IC50) lay in the range of 5 to 10 µM. Besides, the concentration for a half-maximal effect (EC50) in assay [2] (cytotoxicity in Ramos cells) is < 5 µM.

In assay [1], `Cc1ccccc1CC1N=C(c2ccc(O)cc2)c2cc(Cl)ccc2NC1=O` (centres unmarked) [Compound 17, (Z)-7-chloro-5-(4-hydroxyphenyl)-3-(2-methylbenzyl)-1H-benzo[e][1,4]diazepin-2(3H)-one] had an IC50 of 5 to 10 µM. Moreover, the 50% effective concentration (EC50) in assay [2] (Ramos) was 5 to 10 µM.

For the compound `Cc1ccccc1CC1N=C(c2ccc(O)cc2)c2cc(Cl)ccc2N(C)C1=O` (centres unmarked) [Compound 18, (Z)-7-chloro-5-(4-hydroxyphenyl)-1-methyl-3-(2-methylbenzyl)-1H-benzo[e][1,4]diazepin-2(3H)-one], the IC50 in assay [1] is > 10 µM. In addition, in assay [2] (cytotoxicity in Ramos cells), the 50% effective concentration (EC50) was > 10 µM.

Compound `Cc1cccc(CC2N=C(c3ccc(O)cc3)c3cc(Cl)ccc3NC2=O)c1` (centres unmarked) [Compound 19, (Z)-7-chloro-5-(4-hydroxyphenyl)-3-(3-methylbenzyl)-1H-benzo[e][1,4]diazepin-2(3H)-one] displayed an IC50 in assay [1] of 5 to 10 µM. The concentration giving a half-maximal response (EC50) in assay [2] (Ramos) was 5 to 10 µM.

For the compound `Cc1cccc(CC2N=C(c3ccc(O)cc3)c3cc(Cl)ccc3N(C)C2=O)c1` (centres unmarked) [Compound 20, (Z)-7-chloro-5-(4-hydroxyphenyl)-1-methyl-3-(3-methylbenzyl)-1H-benzo[e][1,4]diazepin-2(3H)-one], the IC50 in assay [1] is > 10 µM. The EC50 in assay [2] (cytotoxicity in Ramos cells) was > 10 µM.

As to `CN1C(=O)C(Cc2ccccc2Br)N=C(c2ccc3[nH]c(=O)[nH]c3c2)c2cc(Cl)ccc21` (centres unmarked) [Compound 35, (Z)-3-(2-bromobenzyl)-7-chloro-1-methyl-5-(2-oxo-2,3-dihydro-1H-benzo[d]imidazol-5-yl)-1H-benzo[e][1,4]diazepin-2(3H)-one], the concentration for a half-maximal effect (EC50) in assay [2] (Ramos) fell in the range of 5 to 10 µM.
